For orientation: Ki means the equilibrium dissociation constant of an inhibitor or competing ligand from its target.

Where only a bound is given, the exact number is not on record here.

This note sets out measurements from patent publication US8580802B2, “Pyrrolo[2,3-D]pyrimidines as inhibitors of Janus kinases” (Vertex Pharmaceuticals Incorporated, priority 2005, dated 2013).

The target in one experiment is T1, JAK3 (Homo sapiens, UniProt P52333).
T1 sequence (P52333 1-1124): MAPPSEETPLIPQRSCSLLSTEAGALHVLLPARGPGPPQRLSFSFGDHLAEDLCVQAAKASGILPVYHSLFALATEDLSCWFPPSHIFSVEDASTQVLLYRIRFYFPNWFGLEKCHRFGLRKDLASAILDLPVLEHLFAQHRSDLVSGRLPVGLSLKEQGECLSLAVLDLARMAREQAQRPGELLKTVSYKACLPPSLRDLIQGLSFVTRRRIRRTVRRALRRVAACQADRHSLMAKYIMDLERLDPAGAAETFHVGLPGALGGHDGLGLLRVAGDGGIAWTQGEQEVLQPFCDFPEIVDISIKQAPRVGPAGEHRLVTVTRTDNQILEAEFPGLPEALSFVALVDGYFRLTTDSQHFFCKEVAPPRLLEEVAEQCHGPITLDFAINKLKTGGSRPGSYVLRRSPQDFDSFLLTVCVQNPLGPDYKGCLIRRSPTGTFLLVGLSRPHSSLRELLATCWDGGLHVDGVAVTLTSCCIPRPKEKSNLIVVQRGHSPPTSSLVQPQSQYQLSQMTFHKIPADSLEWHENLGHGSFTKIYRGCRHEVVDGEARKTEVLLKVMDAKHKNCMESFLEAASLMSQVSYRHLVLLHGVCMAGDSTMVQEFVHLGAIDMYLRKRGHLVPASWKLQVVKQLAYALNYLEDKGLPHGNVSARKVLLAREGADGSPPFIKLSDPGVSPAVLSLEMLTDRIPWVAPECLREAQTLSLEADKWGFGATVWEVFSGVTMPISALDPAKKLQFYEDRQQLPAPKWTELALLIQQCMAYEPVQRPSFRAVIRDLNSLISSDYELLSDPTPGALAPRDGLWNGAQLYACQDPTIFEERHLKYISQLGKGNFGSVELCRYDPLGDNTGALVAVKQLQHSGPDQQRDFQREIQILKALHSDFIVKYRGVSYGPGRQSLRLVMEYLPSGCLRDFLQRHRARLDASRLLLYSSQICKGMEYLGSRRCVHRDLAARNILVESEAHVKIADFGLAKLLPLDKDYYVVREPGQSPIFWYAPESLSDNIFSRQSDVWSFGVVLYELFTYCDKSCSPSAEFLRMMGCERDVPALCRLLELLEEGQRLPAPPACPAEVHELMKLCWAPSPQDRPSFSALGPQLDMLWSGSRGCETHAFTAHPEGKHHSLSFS
Put plainly: JAK3 Inhibition Assay. Format: biochemical. Conditions: 1 nM JAK3, 1 μM poly(Glu)4Tyr, 5 μM ATP, 25° C.; read-out: enzyme inhibition data (Ki) JAK3. A digest of the protocol:
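Radiometric ^33P incorporation into poly(Glu)4Tyr (1 μM) by 1 nM human JAK3 at 5 μM ATP, in HEPES pH 7.4 buffer with MgCl2, DTT and BSA. Reaction ran 20 min at 25° C, stopped with TCA, then filtered before scintillation counting.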

In another experiment the target is JAK2 (Homo sapiens, UniProt O60674). Briefly: JAK2 Inhibition Assay. In kind it is biochemical. To be noted: JAK-2 enzyme, 15 μM poly(Glu)4Tyr, 12 μM ATP. A digest of the protocol:
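Radiometric kinase assay with 1 nM JAK2 in pH 7.4 HEPES buffer (10 mM MgCl2, 1 mM DTT, 0.01% BSA), final 15 μM poly(Glu)4Tyr and 12 μM [33P]-ATP. Run 20 min at 25 °C, stopped with TCA; 33P incorporation captured on glass-fibre filters and read by scintillation counting.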

JAK2, sequence (O60674 whole entry): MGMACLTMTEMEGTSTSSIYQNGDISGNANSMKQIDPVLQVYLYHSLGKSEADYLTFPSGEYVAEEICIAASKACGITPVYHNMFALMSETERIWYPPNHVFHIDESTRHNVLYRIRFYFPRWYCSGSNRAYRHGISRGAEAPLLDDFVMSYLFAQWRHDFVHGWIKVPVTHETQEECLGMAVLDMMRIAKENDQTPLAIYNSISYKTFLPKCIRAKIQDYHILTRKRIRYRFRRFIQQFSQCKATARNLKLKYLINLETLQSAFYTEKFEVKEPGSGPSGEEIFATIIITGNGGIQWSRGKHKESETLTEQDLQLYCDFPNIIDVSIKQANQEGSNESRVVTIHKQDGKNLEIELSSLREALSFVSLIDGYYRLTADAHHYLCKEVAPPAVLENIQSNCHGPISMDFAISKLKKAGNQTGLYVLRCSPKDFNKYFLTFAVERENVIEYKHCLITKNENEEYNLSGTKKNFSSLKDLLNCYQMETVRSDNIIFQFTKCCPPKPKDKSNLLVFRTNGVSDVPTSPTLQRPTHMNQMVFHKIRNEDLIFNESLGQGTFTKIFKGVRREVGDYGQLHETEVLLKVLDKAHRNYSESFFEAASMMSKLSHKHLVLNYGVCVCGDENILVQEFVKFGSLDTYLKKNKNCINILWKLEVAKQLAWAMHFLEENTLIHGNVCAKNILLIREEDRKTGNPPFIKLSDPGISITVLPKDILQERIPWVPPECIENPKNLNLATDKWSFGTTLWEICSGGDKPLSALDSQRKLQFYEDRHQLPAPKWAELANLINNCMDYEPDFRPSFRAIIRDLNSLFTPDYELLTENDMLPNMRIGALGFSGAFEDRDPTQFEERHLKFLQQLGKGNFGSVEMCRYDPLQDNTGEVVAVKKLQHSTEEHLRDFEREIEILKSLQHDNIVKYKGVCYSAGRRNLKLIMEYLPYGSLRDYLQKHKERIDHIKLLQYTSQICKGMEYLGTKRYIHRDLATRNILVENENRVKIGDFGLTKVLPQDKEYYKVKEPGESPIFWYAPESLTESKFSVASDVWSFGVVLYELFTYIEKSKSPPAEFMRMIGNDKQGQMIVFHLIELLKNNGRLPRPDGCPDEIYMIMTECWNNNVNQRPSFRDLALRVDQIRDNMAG

Turning to `C[C@@H](Nc1ncnc(-c2c[nH]c3ncncc23)n1)C(=O)NCC(F)(F)F` [Compound 78, (R)-2-(4-(7H-pyrrolo[2,3-d]pyrimidin-5-yl)-1,3,5-triazin-2-ylamino)-N-(2,2,2-trifluoroethyl)propanamide], the Ki at JAK3 was under 500 nM; at JAK2, 500 to 5000 nM.

For `C[C@H](Nc1ncnc(-c2c[nH]c3ncncc23)n1)C(=O)NCC(F)(F)F` [Compound 79, (S)-2-(4-(7H-pyrrolo[2,3-d]pyrimidin-5-yl)-1,3,5-triazin-2-ylamino)-N-(2,2,2-trifluoroethyl)propanamide], the values for the inhibition constant Ki on JAK3 and on JAK2 were under 500 nM and 500 to 5000 nM, respectively.

For `CC[C@@](C)(Nc1ccnc(-c2c[nH]c3ncncc23)n1)C(=O)NCC(F)(F)F` [Compound 80], the Ki on JAK3 and on JAK2 was under 500 nM in each case.

For `CC[C@@](C)(Nc1nc(-c2c[nH]c3ncncc23)ncc1F)C(=O)NCC(F)(F)F` [Compound 81], the Ki at JAK3 and on JAK2 was under 500 nM in each case.

For `O=C(CCNc1ccnc(-c2c[nH]c3ncncc23)n1)NCC(F)(F)F` [Compound 82], the Ki on JAK3 and at JAK2 was under 500 nM each time.

With `C[C@@H](Nc1ccnc(-c2c[nH]c3ncncc23)n1)c1ccc(F)cc1` [Compound 83], the Ki at JAK3 and at JAK2 was under 500 nM in each case.

With `C[C@H](Nc1ccnc(-c2c[nH]c3ncncc23)n1)c1ccc(F)cc1` [Compound 84], the Ki at JAK3 and on JAK2 was under 500 nM each time.

As to `C[C@H](c1ccccc1)N(C)c1ccnc(-c2c[nH]c3ncncc23)n1` [Compound 85], the Ki on JAK3 and on JAK2 was under 500 nM in each case.

For the molecule `C[C@@H](c1ccccc1)N(C)c1ccnc(-c2c[nH]c3ncncc23)n1` [Compound 86], the Ki at JAK3 is under 500 nM; at JAK2, 500 to 5000 nM.

Regarding `CC(C)[C@@](C)(Nc1ccnc(-c2c[nH]c3ncncc23)n1)C(=O)NCC(F)(F)F` [Compound 87], the Ki at JAK3 and on JAK2 was under 500 nM throughout.

For the molecule `CC[C@](C)(Nc1ccnc(-c2c[nH]c3ncncc23)n1)C(=O)NCC(F)(F)F` [Compound 88], the Ki on JAK3 and at JAK2 was under 500 nM throughout.

In the case of `CCC(CC)(Nc1nc(-c2c[nH]c3ncncc23)ncc1F)C(=O)NCC(F)(F)F` [Compound 89], the Ki on JAK3 and at JAK2 was under 500 nM each time.

Regarding `CCC(CC)(Nc1ccnc(-c2c[nH]c3ncncc23)n1)C(=O)NCC(F)(F)F` [Compound 90], the Ki on JAK3 and at JAK2 was under 500 nM each time.

Consider `CC[C@@H](Nc1ncnc(-c2c[nH]c3ncncc23)n1)C(=O)NCC(F)(F)F` [Compound 91], for which the Ki on JAK3 and on JAK2 was under 500 nM throughout.

For the molecule `O=C(NCC(F)(F)F)C1(Nc2ncnc(-c3c[nH]c4ncncc34)n2)CCCC1` [Compound 92], the Ki at JAK3 and on JAK2 was under 500 nM each time.

In the case of `O=C(NCC(F)(F)F)[C@H]1C[C@H](O)CN1c1nc(-c2c[nH]c3ncncc23)ncc1F` [Compound 93], the results for the Ki on JAK3 and at JAK2 were under 500 nM and 500 to 5000 nM, respectively.

`O=C(NCC(F)(F)F)[C@H]1C[C@H](O)CN1c1ccnc(-c2c[nH]c3ncncc23)n1` [Compound 94]: the Ki at JAK3 and at JAK2 was under 500 nM throughout.

Consider `O=C(NCC(F)(F)F)C1CN(c2nc(-c3c[nH]c4ncncc34)ncc2F)C1` [Compound 95], for which the Ki on JAK3 and on JAK2 was over 5000 nM each time.

As to `CN(c1ccnc(-c2c[nH]c3ncncc23)n1)C1(C(=O)NCC(F)(F)F)CC1` [Compound 96], the Ki at JAK3 and on JAK2 was under 500 nM in each case.

On to `CN(c1ccnc(-c2c[nH]c3ncncc23)n1)C(C(=O)NCC(F)(F)F)c1ccccc1` (stereo not drawn) [Compound 97], for which the Ki on JAK3 is under 500 nM; at JAK2, 500 to 5000 nM.

On to `O=C(NCC(F)(F)F)C1(Nc2ccnc(-c3c[nH]c4ncncc34)n2)CCCC1` [Compound 98], for which the Ki at JAK3 and at JAK2 was under 500 nM throughout.

Regarding `CN(c1nc(-c2c[nH]c3ncncc23)ncc1F)C1(C(=O)NCC(F)(F)F)CC1` [Compound 99], the Ki is under 500 nM at JAK3 and 500 to 5000 nM at JAK2.

As for `CN(c1nc(-c2c[nH]c3ncncc23)ncc1F)C(C(=O)NCC(F)(F)F)c1ccccc1` (stereo not drawn) [Compound 100], the Ki at JAK3 was under 500 nM; at JAK2 it was 500 to 5000 nM.

Turning to `O=C(NCC(F)(F)F)C1(Nc2ccnc(-c3c[nH]c4ncncc34)n2)CCOC1` (stereo not drawn) [Compound 101], the Ki on JAK3 and on JAK2 was under 500 nM in each case.

`CC1(C(=O)NCC(F)(F)F)CCCN1c1nc(-c2c[nH]c3ncncc23)ncc1F` (stereo not drawn) [Compound 102]: the Ki at JAK3 and on JAK2 was under 500 nM each time.

For `C[C@@H](Nc1ccnc(-c2c[nH]c3ncncc23)n1)C(=O)N(C)CC(F)(F)F` [Compound 103], the Ki was under 500 nM at JAK3 and 500 to 5000 nM at JAK2.

Take `C[C@@H](Nc1nc(-c2c[nH]c3ncncc23)ncc1F)C(=O)N(C)CC(F)(F)F` [Compound 104]: the Ki at JAK3 is under 500 nM; on JAK2, 500 to 5000 nM.

As for `CC(C)(Nc1nc(-c2c[nH]c3ncncc23)nc2ccccc12)C(=O)NCC(F)(F)F` [Compound 105], the Ki at JAK3 and at JAK2 was under 500 nM throughout.

In the case of `CC(C)(Nc1nc(-c2c[nH]c3ncncc23)ncc1F)C(=O)NCCF` [Compound 106], the Ki at JAK3 and on JAK2 was under 500 nM throughout.

For the molecule `CC(C)(Nc1nc(-c2c[nH]c3ncncc23)ncc1F)C(=O)NCC(F)F` [Compound 107], the Ki on JAK3 and at JAK2 was under 500 nM throughout.

`CC(C)(C(=O)NCC(F)(F)F)n1cnc2cnc(-c3c[nH]c4ncncc34)nc21` [Compound 108, 2-(2-(7H-pyrrolo[2,3-d]pyrimidin-5-yl)-9H-purin-9-yl)-N-(2,2,2-trifluoroethyl)-2-methylpropanamide]: the inhibition constant Ki on JAK3 and at JAK2 was under 500 nM each time.

Consider `O=C(Cn1ccc2cnc(-c3c[nH]c4ncncc34)nc21)NCC(F)(F)F` [Compound 109], for which the Ki at JAK3 and on JAK2 was under 500 nM throughout.

With `CC(C)[C@H](C(=O)NCC(F)(F)F)n1ccc2cnc(-c3c[nH]c4ncncc34)nc21` [Compound 110, (R)-2-(2-(7H-pyrrolo[2,3-d]pyrimidin-5-yl)-7H-pyrrolo[2,3-d]pyrimidin-7-yl)-N-(2,2,2-trifluoroethyl)-3-methylbutanamide], the Ki at JAK3 and at JAK2 was under 500 nM each time.

With `O=C(CCn1ccc2cnc(-c3c[nH]c4ncncc34)nc21)NCC(F)(F)F` [Compound 111], the Ki on JAK3 and on JAK2 was under 500 nM throughout.

Take `CC[C@@H](C(=O)NCC(F)(F)F)n1ccc2cnc(-c3c[nH]c4ncncc34)nc21` [Compound 112]: the Ki on JAK3 and at JAK2 was under 500 nM each time.

Regarding `CC[C@@H](C(=O)NCC(F)(F)F)n1cnc2cnc(-c3c[nH]c4ncncc34)nc21` [Compound 113], the Ki on JAK3 and on JAK2 was under 500 nM each time.
